From PubChem BioAssay (NCI)
Where “and” joins values, the source holds several entries; their conditions need not be identical. Equal entries are not always repeated.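 These data come from cells grown in 96-well plates and exposed to compound for 48 hours at five concentrations. The concentration for 50% growth inhibition is given as GI50. Definition used: TGI = concentration required for complete inhibition of growth.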 *1 amine or outer side, *2 acyl side, *3 side chain or, on linkers, in order; H or OH if unused. Where a SMILES comes first, the peptide text is derived from it. Bridges are numbered along the chain shown (N, C = ends). Roman numbers before positions name the chains, in order. [ ]: non-standard residue; d: D form. Actinocin(9to1) = Cc1c2oc3c(C)ccc(C(=O)[*:1])c3nc-2c(C(=O)[*:2])c(N)c1=O; NMeV = CN[CH](C(=O)O)C(C)C; Sar = CNCC(=O)O

Assays:
Assay in all cases: inhibition of tumour cell growth, NCI panel, 48 h
[1] = system: RPMI-8226 leukemia
[2] = system: M14 melanoma
[3] = system: RXF 393 renal
[4] = system: ACHN renal
[5] = system: NCI-H522 lung
[6] = system: HL-60(TB) leukemia
[7] = system: HOP-62 NSCLC
[8] = system: HCT-15 colon
[9] = system: SF-295 CNS
[10] = system: UO-31 renal
[11] = system: SNB-75 CNS
[12] = system: NCI-H23 lung

Row | SMILES | GI50 [1] [µM] | TGI [1] [µM] | GI50 [2] | TGI [2] | GI50 [3] [µM] | TGI [3] | GI50 [4] [µM] | TGI [4] | GI50 [5] | TGI [5] | GI50 [6] [µM] | TGI [6] [µM] | TGI [7] [µM] | TGI [8] [µM] | TGI [9] | TGI [10] | TGI [11] [µM] | TGI [12] | GI50 [8] [µM] | GI50 [10] [µM]
1 | CC(C)(C)c1ccc(C(O)CCCN2CCC(C(O)(c3ccccc3)c3ccccc3)CC2)cc1 (stereo not drawn) | 1.94 | 5.49 | 1.7 µM and 13.5 µM | 3.21 µM and 18.4 µM | 1.08 | 2.27 µM | 1.67 | 3.03 µM | 1.83 µM and 13.6 µM | 3.31 µM and 21.2 µM | 2.16 | 3.97 | – | – | – | – | – | – | – | –
2 | CC1C(NNC(N)=O)Oc2cc3c(cc2C1c1ccccc1O)OCO3 (stereo not drawn) | – | 78.6 | – | > 100 µM | – | 84.6 µM | – | > 100 µM | – | 58.6 µM | – | 35.4 | > 100 | > 100 | 76.2 µM | > 100 µM | 86.3 | > 100 µM | – | –
3 | O=C(NNC(=S)Nc1ccccc1)c1nsc2ccccc12 | – | > 100 | – | 32.9 µM | – | > 100 µM | – | > 100 µM | – | – | – | 53.8 | > 100 | > 100 | – | 75.4 µM | 65.6 | > 100 µM | – | –
4 | CC(C(=O)OCc1ccccc1)N(Cc1ccccc1)Cc1ccccc1 (stereo not drawn) | – | > 100 | – | > 100 µM | – | 88 µM | – | > 100 µM | – | > 100 µM | – | 79.2 | > 100 | > 100 | > 100 µM | > 100 µM | > 100 | > 100 µM | – | –
5 | NC(Cc1ccc(OCc2ccccc2)cc1)C(=O)NC(Cc1ccccc1)C(=O)Oc1c(Cl)c(Cl)c(Cl)c(Cl)c1Cl (stereo not drawn) | – | > 100 | – | 28.5 µM | – | 28.3 µM | – | 30.5 µM | – | 42.3 µM | – | > 100 | 30.5 | 30.2 | – | 30.4 µM | 29.6 | 30.6 µM | – | –
6 | Cc1c2oc3c(C)ccc(C(=O)NC4C(=O)NC(Cc5ccccc5)C(=O)N5CCCC5C(=O)N(C)CC(=O)N(C)C(C(C)C)C(=O)OC4C)c3nc-2c(C(=O)NC2C(=O)NC(Cc3ccccc3)C(=O)N3CCCC3C(=O)N(C)CC(=O)N(C)C(C(C)C)C(=O)OC2C)c(N)c1=O (stereo not drawn) (I: TFP[Sar][NMeV] / II: TFP[Sar][NMeV]; ester I:1-I:C, II:1-II:C; linker I:N-II:N via Actinocin(9to1); configuration not given here) | – | > 100 | < 0.001 µM | 0.0399 µM and 0.0936 µM | < 0.001 | 0.00952 µM and 0.0394 µM | – | 1.21 µM and 1.98 µM | – | 0.0217 µM | – | < 0.001 | 0.102 | – | 0.0465 µM and 0.413 µM | 0.468 µM and 0.31 µM | 0.049 | 0.0202 µM and 0.0398 µM | 0.017 | 0.0502
7 | COc1ccccc1OCC(COC(=O)Nc1ccccc1)OC(=O)Nc1ccccc1 (stereo not drawn) | – | – | – | > 100 µM | – | 46.8 µM | – | > 100 µM | – | > 100 µM | – | > 100 | > 100 | > 100 | > 100 µM | > 100 µM | 45.6 | > 100 µM | – | –
